# Laboratory results published in US9970037B2, “Methods and materials for making simvastatin and related compounds” (The Regents of the University of California, priority 2006, dated 2018).
# Legend:
# LovD = biological target: T1, LovD (Aspergillus terreus, UniProt Q9Y7D1); set-up: 6xHis (N); made in house; host or cells: E. coli BL21(DE3)/pAW31 (pET28a); settings: Xie et al., 2006; cited from earlier work
# T1 sequence (Q9Y7D1 1-413): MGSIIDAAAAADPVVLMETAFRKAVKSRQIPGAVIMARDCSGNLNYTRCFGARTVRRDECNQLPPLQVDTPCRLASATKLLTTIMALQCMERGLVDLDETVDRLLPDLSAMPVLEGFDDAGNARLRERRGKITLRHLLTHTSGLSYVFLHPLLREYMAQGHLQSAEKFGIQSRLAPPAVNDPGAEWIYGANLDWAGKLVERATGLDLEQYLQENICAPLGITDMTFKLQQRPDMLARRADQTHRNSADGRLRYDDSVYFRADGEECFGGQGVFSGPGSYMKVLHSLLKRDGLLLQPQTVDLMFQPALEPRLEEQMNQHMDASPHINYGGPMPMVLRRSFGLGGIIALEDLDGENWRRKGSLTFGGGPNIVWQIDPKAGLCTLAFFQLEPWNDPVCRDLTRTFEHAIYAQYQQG
# E. coli BL21(DE3)/pAW31 = experiment: Whole cell biocatalysis with E. coli overexpressing LovD; type: cell-based, Escherichia coli; settings: 0.5 mM lovastatin (sodium salt form)
# Experimental: The BL21(DE3)/pAW31 overexpression strain was grown in a shake flask (200 mL) to an OD600 of 1.0, at which time 1 mM IPTG, 0.8 mM monacolin J and 4 mM of either benzoyl-SNAC or benzoyl-SMTG were added to the culture. Expression of LovD and bioconversion was performed at 18° C. The culture was extracted and analyzed for the formation of 8-benzoyl-monacolin J. When supplemented with benzoyl-SNAC, 84% conversion of monacolin J was detected within 20 hours post-induction. The product was lactonized and purified by a single silica-gel chromatography step. The NMR spectra confirmed the regioselective benzoylation of the C8 hydroxyl group as the diagnostic H8 multiplet is shifted downfield to δ 5.61.
# Fermentation conditions: 500 mL culture with LB media with 30 mg/L kanamycin. At OD600 of 1.0, cells were concentrated to a final OD600 of 5.0 and induced with 1 mM IPTG. Substrates monacolin J and α-dimethylbutyryl-SNAC were added to a final concentration of 1 mM and 4 mM. At different time points, culture samples were collected, centrifuged, filtered and injected on to HPLC (20 μL). Extraction conditions: When maximum conversion was reached, the broth was acidified to pH of 2.0, extracted with ethyl acetate, dried and redissolved in toluene.
# Whole-cell catalytic synthesis of simvastatin acid from MJ acid and DMB-S-MMP were performed as described (see, e.g., Xie et al., (2007) Appl Environ Microbiol 73: 2054-2060). The E. coli BL21(DE3)/pAW31 and YT2/pAW31 strains were cultured side-by-side for comparison. A single colony of the freshly transformed strains was used to inoculate a 5 mL LB culture supplemented with 35 mg/L kanamycin and grown overnight at 37° C. The next morning, 100 μL of the overnight culture was inoculated into 50 mL cultures containing LB broth, F1 minimal medium and F1 medium supplemented with 0.15 mg/L biotin. Growth rates were monitored by periodically measuring the OD600 reading. When OD600 reached ˜0.5, 100 μM IPTG was added to the culture and expression of LovD was performed at 20° C. for 16 hours. To mimic high density fermentation conditions, the cells were concentrated 10-fold before addition of substrates. Typically, a 14 mL aliquot of the culture was transferred to a 15 mL centrifuge tube and the cells were collected by centrifugation (4° C., 4000 g, 10 minutes). The cell pellet was gently resuspended in 1316 μl of the supernatant, followed by addition of 84 μl of a MJ acid stock solution (250 mM in H2O) (final concentration 15 mM). The concentrated culture was then separated into seven 200 μL samples and 1.2 μL of pure DMB-S-MMP was added to each sample (final concentration ˜25 mM). The culture was then shaken at 300 rpm at room temperature. At each time point, a total extraction was performed by adding 10 μL 20% SDS to lyse the cells, followed by liquid-liquid extraction with 500 μL EA/1% AcOH. The organic phase was removed, evaporated, and redissolved in 50 μL ACN for HPLC analysis. For the BL21(DE3) sample, an additional 1.2 μL aliquot of DMB-S-MMP was added after 12 hours to replenish the hydrolyzed substrates.
# The E. coli BL21(DE3)/pAW31 strain was grown in LB medium at 37° C. to an OD600 of 0.5, at which time 100 μM IPTG was added to the culture and expression was performed at RT for 16 hours. A 10 ml culture was transferred to a 15 mL centrifuge tube. The cells were collected by centrifugation (4000 g, 10 minutes). The cell pellet was resuspended in 957 μl of the supernatant. The pH was adjusted to pH 7.9 with 1.0 N NaOH, followed by addition of 33 μl 450 mM MJ (final concentration 15 mM) and 6 μl pure DMB-S-MMP (final concentration ˜25 mM). The culture was then shaken at 300 rpm at room temperature. At each time point, a 4 μL aliquot was removed from the reaction mixture, quenched in 300 μL ethyl acetate containing 1% TFA.
smiles,measurement,setting,value
"CC[C@H](C)C(=O)O[C@H]1C[C@@H](C)C=C2C=C[C@H](C)[C@H](CC[C@@H]3C[C@@H](O)CC(=O)O3)[C@H]21 [lovastatin, reference compound]",kcat of LovD hydrolysis of lovastatin into monacolin J in vitro (previously reported),LovD,0.0035 s⁻¹
same,conversion rate of whole cell hydrolysis,E. coli BL21(DE3)/pAW31,~0.01 mM per hour
same,hydrolysis to monacolin J by whole cells,E. coli BL21(DE3)/pAW31; 48 hours,91%
